These results are taken from patent US11583532B2, “Triazolopyrimidine derivatives for use as ghrelin o-acyl transferase (GOAT) inhibitors” (Boehringer Ingelheim International GmbH, priority 2018, dated 2023).

Each structure is given as a SMILES string. Where “and” joins values, the source holds several entries; their conditions need not be identical. Identical values can stand only once.

This assay deals with human GOAT (ghrelin O-acyl transferase) (Homo sapiens (Human), UniProt Q96T53). The experiment in a line: Determination of hGOAT activity in HEK293 cells after incubation with test compound (acyl-ghrelin ELISA). The assay is classed as cell-based. To be noted: HEK293 cells stably transfected with preproghrelin and human GOAT cDNA; octanoate-BSA 100 μM; 5 hours incubation; acyl-ghrelin in medium by ELISA; 8 compound concentrations. The procedure: Determination of hGOAT Activity in HEK293 Cells after incubation with test compound
Chain of human GOAT (ghrelin O-acyl transferase) (Q96T53 whole entry): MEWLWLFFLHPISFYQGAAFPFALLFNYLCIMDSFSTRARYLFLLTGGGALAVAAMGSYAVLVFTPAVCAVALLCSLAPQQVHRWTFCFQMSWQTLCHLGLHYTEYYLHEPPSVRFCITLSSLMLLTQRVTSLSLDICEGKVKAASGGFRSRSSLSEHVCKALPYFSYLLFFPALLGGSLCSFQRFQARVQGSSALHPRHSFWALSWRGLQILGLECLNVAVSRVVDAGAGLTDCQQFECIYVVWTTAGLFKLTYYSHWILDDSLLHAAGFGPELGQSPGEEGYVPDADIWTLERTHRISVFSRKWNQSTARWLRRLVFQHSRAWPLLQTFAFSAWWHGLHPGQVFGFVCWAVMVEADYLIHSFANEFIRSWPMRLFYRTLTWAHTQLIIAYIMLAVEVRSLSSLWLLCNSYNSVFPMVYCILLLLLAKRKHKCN
HEK293 cells stably transfected with two expression vectors, one coding for preproghrelin cDNA and a second for the expression of human GOATcDNA are used as a cellular model. After feeding the cells with octanoic acid for 5 hours, acyl-ghrelin is measured in cell culture medium by an ELISA procedure.
Cellline: Hek293 hGOAT/PPGhrl Clone #1B8Sodium octanoate, Sigma, Cat.-No. C5038
BSA: Sigma, Cat.-No. A8806
BD Poly-D-Lysin 384-well Plates, black-clear polystyrene BD Bioscience Cat.-No. […] ELISA human acylated Ghrelin Kit purchased from Bertin Pharman (detailed composition of buffers e.g. wash-puffer, ELISA buffer not known)
All further reagents used were of highest analytical grade available.
Cells are plated with a density of 5000 cells/well in 384-well poly-D-lysin plates and incubated for 1 day at 37° C., 5% CO2 in DMEM medium, 10% FCS, 1×NEAA, Puromycin (0.5 μg/ml) and G418 (1 mg/ml). Then the medium is changed to a identical medium without FCS and containing Octanoate-BSA (final concentration 100 μM each) and compound in DMSO (final DMSO concentration 0.3%). After incubation for 5 hours acylghrelin in the medium is measured by ELISA.
The medium sample is diluted 1:25 in Elisa buffer, a 25 μl aliquot is transferred to a 384-well ELISA plate previously washed 4 times with 100 μL wash buffer, and 25 μl tracer-solution is added. After incubation overnight (˜20 h) at 4° C. temperature the plate is washed 4 times with 100 μl wash-buffer per well. Finally 50 μl Ellman's reagent is added to each well and the plate is incubated in the dark for 20 minutes. The absorbance is measured at 405 nm in an Envision multilabel reader and the amount of acylated ghrelin is calculated according to a acylated ghrelin standard curve provided in the same plate.
The analysis of the data is performed by calculation of the percentage of acyl-ghrelin produced in the presence of test compound compared to the amount of acyl-ghrelin produced in the vehicle control samples. An inhibitor of the GOAT enzyme will give values between 100% CTL (no inhibition) and 0% CTL (complete inhibition).
IC50 values are calculated with Assay Explorer or other suited software based on curve fitting of results of 8 different compound concentrations.
One may read the IC50 as the concentration at which inhibition is half-maximal. Low values mean inhibition by little substance, high ones a need for much substance. Compound `Cc1nc2ncnn2c(N)c1Cc1ccc(Br)c(OCC(C)(F)F)n1` [Example 1.1, 6-{[5-Bromo-6-(2,2-difluoropropoxy)pyridin-2-yl]methyl}-5-methyl-[1,2,4]triazolo[1,5-a]pyrimidin-7-amine] returned an IC50 of 0.31 nM.

On to `Cc1nc2ncnn2c(N)c1Cc1ccc(OC(F)F)c(Br)c1` [Example 1.2], for which half-maximal inhibition (IC50) required 2 nM.

`Cc1nc2ncnn2c(N)c1Cc1ccc(C(F)(F)F)c(-c2ccco2)n1` [Example 2.1, 6-{[6-(Furan-2-yl)-5-(trifluoromethyl)pyridin-2-yl]methyl}-5-methyl-[1,2,4]triazolo[1,5-a]pyrimidin-7-amine] displayed a 50% inhibitory concentration (IC50) of 0.4 nM.

Compound `Cc1nc2ncnn2c(N)c1Cc1ccc(C(F)(F)F)c(N2CCOCC2)n1` [Example 3.1, 5-Methyl-6-{[6-(morpholin-4-yl)-5-(trifluoromethyl)pyridin-2-yl]methyl}-[1,2,4]triazolo[1,5-a]pyrimidin-7-amine] showed an IC50 of 0.65 nM. This IC50 lies about 1.6-fold higher than the previous one.

With `Cc1nc2ncnn2c(N)c1Cc1ccc(C(F)(F)F)c(N2CC(F)(F)C2)n1` [Example 3.3], the IC50 was 0.32 nM and 0.76 nM.

As to `Cc1nc2ncnn2c(N)c1Cc1ccc(C(F)(F)F)c(N)n1` [Example 3.4], the half-maximal inhibitory concentration (IC50) worked out at 6.5 nM.

Turning to `Cc1nc2ncnn2c(N)c1Cc1ccc(OC(F)F)c(Br)n1` [Example 4.1, 6-{[6-Bromo-5-(difluoromethoxy)pyridin-2-yl]methyl}-5-methyl-[1,2,4]triazolo[1,5-a]pyrimidin-7-amine], the half-inhibitory concentration (IC50) is 0.3 nM.

As for `COc1nc(C(F)(F)F)ccc1Cc1c(C)nc2ncnn2c1N` [Example 4.2], the half-inhibitory concentration (IC50) came to 1.9 nM.

Consider `Cc1nc2ncnn2c(N)c1Cc1ccc(C(F)(F)F)c(Br)c1` [Example 4.3], for which inhibition was half-maximal at 1.1 nM (IC50). Compared with the last compound, the IC50 is about 1.7-fold lower.

Take `Cc1nc2ncnn2c(N)c1Cc1ccc(OC(F)(F)F)c(Br)c1` [Example 4.4, 6-{[3-bromo-4-(trifluoromethoxy)phenyl]methyl}-5-methyl-[1,2,4]triazolo[1,5-a]pyrimidin-7-amine]: the half-maximal inhibitory concentration (IC50) was found to be 1.1 nM. That is a single-digit nanomolar value.

Consider `CCOc1cc(C(F)(F)F)ccc1Cc1c(C)nc2ncnn2c1N` [Example 4.5], for which the IC50 worked out at 2.4 nM.

For `Cc1nc2ncnn2c(N)c1Cc1ccc(C(F)(F)F)nc1OC1CCC1` [Example 4.6], the IC50 came to 3 nM.

As for `CCOc1nc(C(F)(F)F)ccc1Cc1c(C)nc2ncnn2c1N` [Example 4.7], the IC50 worked out at 2.9 nM. This IC50 and that of the compound before are within 1.5-fold of each other.

`Cc1nc2ncnn2c(N)c1Cc1cccc(OC(F)F)n1` [Example 4.8] came in with a 50% inhibitory concentration (IC50) of 8.8 nM.

The compound `Cc1nc2ncnn2c(N)c1Cc1ccc(C(F)F)cc1` [Example 4.9] gave an IC50 of 9.8 nM.

As to `Cc1nc2ncnn2c(N)c1Cc1ccc(Br)c(OC(F)F)n1` [Example 5.1, 6-{[5-Bromo-6-(difluoromethoxy)pyridin-2-yl]methyl}-5-methyl-[1,2,4]triazolo[1,5-a]pyrimidin-7-amine], half-maximal inhibition (IC50) required 0.13 nM.

`Cc1nc2ncnn2c(N)c1Cc1ccc(OC(F)(F)F)cc1` [Example 6.1, 5-methyl-6-{[4-(trifluoromethoxy)phenyl]methyl}-[1,2,4]triazolo[1,5-a]pyrimidin-7-amine] showed an IC50 of 3.9 nM.

The compound `COc1cc(C(F)(F)F)ccc1Cc1c(C)nc2ncnn2c1N` [Example 6.2] gave a concentration for half-maximal inhibition (IC50) of 0.69 nM.

In the case of `Cc1nc2ncnn2c(N)c1Cc1ccc(C(F)(F)F)cc1` [Example 6.3], the half-inhibitory concentration (IC50) is 3.4 nM. Against the preceding compound, the IC50 is about 4.9-fold higher.

As for `Cc1nc2ncnn2c(N)c1Cc1ccc(OC(F)F)cc1` [Example 6.4], the concentration for half-maximal inhibition (IC50) was found to be 1.9 nM.

Compound `Cc1nc2ncnn2c(N)c1Cc1ccc(SC(F)(F)F)cc1` [Example 6.5, 5-methyl-6-({4-[(trifluoromethyl)sulfanyl]phenyl}methyl)-[1,2,4]triazolo[1,5-a]pyrimidin-7-amine] showed a half-inhibitory concentration (IC50) of 1.7 nM.

The compound `Cc1nc2ncnn2c(N)c1Cc1ccc(C#N)c(NCC(F)F)n1` [Example 7.1, 6-({7-amino-5-methyl-[1,2,4]triazolo[1,5-a]pyrimidin-6-yl}methyl)-2-[(2,2-difluoroethyl)amino]pyridine-3-carbonitrile] gave an IC50 of 0.37 nM.

In the case of `COC(=O)c1cc(Cc2c(C)nc3ncnn3c2N)ccc1C(F)(F)F` [Example 7.2], the half-maximal inhibitory concentration (IC50) stood at 0.57 nM.

On to `Cc1nc2ncnn2c(N)c1Cc1ccc(C#N)c(NC2CC(F)(F)C2)n1` [Example 7.3], for which the IC50 was 2.3 nM.

`Cc1nc2ncnn2c(N)c1Cc1ccc(C#N)c(OCC(C)(F)F)n1` [Example 7.4] displayed a half-inhibitory concentration (IC50) of 1.3 nM. This IC50 lies about 1.8-fold lower than the previous one.

In turn, `COc1cc(Cc2c(C)nc3ncnn3c2N)ccc1C(F)(F)F` [Example 7.5] registered a half-inhibitory concentration (IC50) of 0.92 nM.

`Cc1nc2ncnn2c(N)c1Cc1ccc(C#N)c(NCC(F)(F)F)n1` [Example 7.6] returned an IC50 of 0.69 nM.

The compound `Cc1nc2ncnn2c(N)c1Cc1ccc(C#N)c(NCCC(F)F)n1` [Example 7.7] came in with an IC50 of 0.93 nM.

Regarding `Cc1nc2ncnn2c(N)c1Cc1ccc(C#N)c(NCCF)n1` [Example 7.8], the half-inhibitory concentration (IC50) is 1.1 nM.

Take `Cc1nc2ncnn2c(N)c1Cc1ccc(C#N)c(NCCCF)n1` [Example 7.9]: it took 1.3 nM to reach half-maximal inhibition (IC50).

`Cc1nc2ncnn2c(N)c1Cc1ccc(C#N)c(NCC2CC2(F)F)n1` (centres unmarked) [Example 7.10] returned an IC50 of 6.2 nM.

Take `Cc1nc2ncnn2c(N)c1Cc1ccc(Br)c(OCCCF)n1` [Example 8.1, 6-{[5-Bromo-6-(3-fluoropropoxy)pyridin-2-yl]methyl}-5-methyl-[1,2,4]triazolo[1,5-a]pyrimidin-7-amine]: the IC50 amounted to 0.27 nM.

As to `Cc1nc2ncnn2c(N)c1Cc1ccc(Br)c(NCC(F)(F)F)n1` [Example 8.2], inhibition was half-maximal at 0.23 nM (IC50).

`Cc1nc2ncnn2c(N)c1Cc1ccc(Br)c(OCCF)n1` [Example 8.3] gave an IC50 of 0.3 nM.

`Cc1nc2ncnn2c(N)c1Cc1ccc(Br)c(OCC(F)F)n1` [Example 8.4]: the concentration for half-maximal inhibition (IC50) is 0.3 nM. This counts as sub-nanomolar.

`Cc1nc2ncnn2c(N)c1Cc1ccc(C#N)c(OCC(F)F)n1` [Example 9.1, 6-({7-Amino-5-methyl-[1,2,4]triazolo[1,5-a]pyrimidin-6-yl}methyl)-2-(2,2-difluoroethoxy)pyridine-3-carbonitrile] registered an IC50 of 2.4 nM.

The compound `Cc1nc2ncnn2c(N)c1Cc1ccc(C#N)c(OCC2(C(F)(F)F)CC2)n1` [Example 9.2] gave an IC50 of 8.3 nM.

Take `Cc1nc2ncnn2c(N)c1Cc1ccc(C#N)c(OCCCF)n1` [Example 9.3]: it took 0.56 nM to reach half-maximal inhibition (IC50).

The compound `Cc1nc2ncnn2c(N)c1Cc1ccc(C#N)c(OCCF)n1` [Example 9.4] registered an IC50 of 3.7 nM.

Turning to `Cc1nc2ncnn2c(N)c1Cc1ccc(C#N)c(OCC(F)(F)F)n1` [Example 9.5], the half-maximal inhibitory concentration (IC50) came out at 3.9 nM.

The compound `Cc1nc2ncnn2c(N)c1Cc1ccc(Br)c(-n2cc(F)cn2)n1` [Example 10.1, 6-{[5-Bromo-6-(4-fluoro-1H-pyrazol-1-yl)pyridin-2-yl]methyl}-5-methyl-[1,2,4]triazolo[1,5-a]pyrimidin-7-amine] returned a 50% inhibitory concentration (IC50) of 0.68 nM.

Regarding `Cc1nc2ncnn2c(N)c1Cc1ccc(Br)c(-n2ccc(C(F)(F)F)n2)n1` [Example 10.2], the IC50 is 2.8 nM.

For `Cc1nc2ncnn2c(N)c1Cc1ccc(Br)c(-n2cc(C(F)(F)F)cn2)n1` [Example 10.3], the IC50 came to 8.6 nM.

In the case of `Cc1nc2ncnn2c(N)c1Cc1ccc(OC(F)(F)F)c(N=S(C)(C)=O)c1` [Example 11.1, {[5-({7-Amino-5-methyl-[1,2,4]triazolo[1,5-a]pyrimidin-6-yl}methyl)-2-(trifluoromethoxy)phenyl]imino}dimethyl-λ6-sulfanone], the midpoint of inhibition, the IC50, lay at 0.95 nM. This IC50 lies about 9.1-fold lower than the previous one.
